Drawing on patent publication US20100068204A1, “4-ARYLOXYQUINOLIN-2(1H)-ONES AS MTOR KINASE AND PI3 KINASE INHIBITORS, FOR USE AS ANTI-CANCER AGENTS” (Wyeth, priority 2008, published 2010), this text covers IC50 for 18 molecules.

One assay has as its target human TOR (FLAG-TOR) (Homo sapiens, UniProt P42345). The assay is described as follows: mTOR enzyme assay (DELFIA format, purified enzyme). Format: biochemical. To be noted: 800 ng/ml FLAG-TOR, 100 μM ATP, 1.25 μM His6-S6K; read-out: mTOR Kinase IC50.
The next assay concerns the target PI3Kα (Homo sapiens, UniProt P42336). The assay is described as follows: PI3Kα fluorescence polarization assay. Format: biochemical. Particulars: 20 μM PIP2, 25 μM ATP. Here is the method: The reaction buffer was 20 mM HEPES pH7.5, 2 mM MgCl2, 0.05% CHAPS, and 0.01% βME (added fresh). The substrate solution was 40 μM PIP2 (diC8, Echelon, Salt Lake City Utah cat #P-4508, 1 mM in water) and 50 μM ATP in the reaction buffer. Nunc 384-well black polypropylene fluorescent plates were used for PI3K assays. The assay is run by putting 9.5 μl of freshly diluted enzyme in the reaction buffer per well, adding 0.5 μl of diluted drug or DMSO, and mixing. Then 10 μl of the substrate solution is added to each well to start the reaction. A final concentration of 20 μM PIP2 and 25 μM ATP in the reaction was used. Reactions were allowed to proceed for 30-60 minutes at room temperature. After 30-60 minutes, 20 μl of a solution of 10 nM TAMRA detector (Red detector probe-Echelon) and 2.5 uM of GST-murine GRP (1.5 mg/ml in 17% glycerol) was added per well to stop the reaction. The resulting solution was mixed well and allowed to stand for 90-110 minutes before reading plate. Assay Plates were read on Perkin-Elmer Envision plate readers with appropriate filters for Tamra [BODIPY-TMRI(1,3,4,5)P4]. Data obtained were used to calculate enzymatic activity and enzyme inhibition by inhibitor compounds. It is important to keep Red probe solutions dark. This procedure is adapted from Echelon Biosciences Inc procedure for their PI3-Kinase fluorescence polarization activity Assay kit Product number K-1100.
Background: Fluorescence polarisation rises when a labelled molecule tumbles more slowly, as on binding a larger partner.

For assay [1], the system named is LNCap prostate tumor cells. The assay is described as follows: In vitro cell growth assay (MTS), LNCap. It counts as cell-based, human. Particulars: Homo sapiens, LNCaP, 72 h, three days after drug treatment. As for the experimental part: (§1) Cell lines used were human adenocarcinoma (LoVo), […], prostate (LNCap), breast (MDA468, MCF7), colon (HCT116), renal (HTB44 A498), and ovarian (OVCAR3) tumor cell lines. The tumor cells were plated in 96-well culture plates at approximately 3000 cells per well. One day following plating, various concentrations of inhibitors in DMSO were added to cells (final DMSO concentration in cell assays was 0.25%). Three days after drug treatment, viable cell densities were determined by cell mediated metabolic conversion of the dye MTS, a well-established indicator of cell proliferation in vitro. Cell growth assays were performed using kits purchased from Promega Corporation (Madison, Wis.), following the protocol provided by the vendor. Measuring absorbance at 490 nm generated MTS assay results. Compound effect on cell proliferation was assessed relative to untreated control cell growth.

For assay [2], the system named is MDA468 breast tumor cells. The assay is described as follows: In vitro cell growth assay (MTS), MDA468. It counts as cell-based, human. Particulars: three days after drug treatment. Here is the method:
as §1

Chain of PI3Kα (P42336 whole entry, species assumed): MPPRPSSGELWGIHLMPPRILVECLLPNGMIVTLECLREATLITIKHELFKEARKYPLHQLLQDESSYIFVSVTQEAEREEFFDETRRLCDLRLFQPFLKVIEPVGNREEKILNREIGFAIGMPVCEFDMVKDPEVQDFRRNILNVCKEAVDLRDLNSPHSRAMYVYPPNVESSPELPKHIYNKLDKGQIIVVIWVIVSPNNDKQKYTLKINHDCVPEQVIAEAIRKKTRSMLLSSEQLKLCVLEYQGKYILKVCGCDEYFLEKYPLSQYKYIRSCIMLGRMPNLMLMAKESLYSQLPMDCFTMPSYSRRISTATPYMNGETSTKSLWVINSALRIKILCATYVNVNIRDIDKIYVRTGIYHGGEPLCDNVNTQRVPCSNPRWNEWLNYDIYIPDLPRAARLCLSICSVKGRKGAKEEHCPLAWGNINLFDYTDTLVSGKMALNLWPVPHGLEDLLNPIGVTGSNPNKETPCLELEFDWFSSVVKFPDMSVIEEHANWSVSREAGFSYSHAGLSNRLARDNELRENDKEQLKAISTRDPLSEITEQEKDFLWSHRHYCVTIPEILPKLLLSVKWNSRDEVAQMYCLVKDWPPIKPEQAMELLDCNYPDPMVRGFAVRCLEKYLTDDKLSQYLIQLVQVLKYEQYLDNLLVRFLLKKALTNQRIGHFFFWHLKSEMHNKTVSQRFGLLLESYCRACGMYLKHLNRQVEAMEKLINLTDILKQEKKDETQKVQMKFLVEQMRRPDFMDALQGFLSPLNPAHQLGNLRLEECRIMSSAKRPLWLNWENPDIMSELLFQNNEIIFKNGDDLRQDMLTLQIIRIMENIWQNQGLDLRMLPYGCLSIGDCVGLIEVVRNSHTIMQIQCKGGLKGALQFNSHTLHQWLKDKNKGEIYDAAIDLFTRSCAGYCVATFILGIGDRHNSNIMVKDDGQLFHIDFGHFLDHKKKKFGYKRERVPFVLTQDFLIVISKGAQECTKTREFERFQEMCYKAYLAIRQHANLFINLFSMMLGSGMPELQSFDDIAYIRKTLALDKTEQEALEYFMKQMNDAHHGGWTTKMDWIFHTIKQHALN
Chain of PI3Kα (P27986 whole entry partner, species assumed): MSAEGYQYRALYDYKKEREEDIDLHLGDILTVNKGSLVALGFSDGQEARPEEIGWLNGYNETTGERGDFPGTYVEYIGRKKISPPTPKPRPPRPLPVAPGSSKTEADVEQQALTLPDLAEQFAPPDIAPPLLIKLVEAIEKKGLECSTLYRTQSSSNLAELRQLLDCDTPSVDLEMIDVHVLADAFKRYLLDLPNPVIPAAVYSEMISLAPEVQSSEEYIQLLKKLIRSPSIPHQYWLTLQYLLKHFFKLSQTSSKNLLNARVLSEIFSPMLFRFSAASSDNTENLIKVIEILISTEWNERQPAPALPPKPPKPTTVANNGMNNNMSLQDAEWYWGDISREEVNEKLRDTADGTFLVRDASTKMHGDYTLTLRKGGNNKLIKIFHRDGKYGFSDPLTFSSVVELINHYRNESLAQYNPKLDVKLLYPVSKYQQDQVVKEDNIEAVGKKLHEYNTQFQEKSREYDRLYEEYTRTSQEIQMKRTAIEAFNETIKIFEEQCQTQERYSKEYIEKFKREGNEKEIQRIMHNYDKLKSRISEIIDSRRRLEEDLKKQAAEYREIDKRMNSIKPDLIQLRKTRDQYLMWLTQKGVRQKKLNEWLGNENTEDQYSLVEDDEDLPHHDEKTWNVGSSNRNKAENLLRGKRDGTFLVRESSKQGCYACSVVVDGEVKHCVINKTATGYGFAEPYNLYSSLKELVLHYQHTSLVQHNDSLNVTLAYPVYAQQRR

On to `O=c1cc(Oc2cccc(-c3ccc(NC4CCN(Cc5ccccn5)CC4)cc3)c2)c2ccccc2[nH]1`, for which the IC50 on human TOR (FLAG-TOR) is 0.11 µM; against PI3Kα, over 10 µM; in assay [1], 5.2 µM; in assay [2] (Homo sapiens, 72 h), 11 µM.

On to `O=c1cc(Oc2cccc(NCc3cccs3)c2)c2ccccc2[nH]1`, for which the 50% inhibitory concentration (IC50) on human TOR (FLAG-TOR) is 0.08 µM; against PI3Kα, over 10 µM; in assay [1] it was 5.4 µM; in assay [2] (Homo sapiens, 72 h), over 60 µM.

Consider `Nc1cccc(Oc2cc(=O)[nH]c3ccccc23)c1`, for which the IC50 at human TOR (FLAG-TOR) is 0.15 µM; at PI3Kα, 0.106 µM; in assay [1] it was 2.5 µM; in assay [2] (Homo sapiens, 72 h), 28 µM.

`O=c1cc(Oc2ccccc2)c2cc(N3CCOCC3)ccc2[nH]1`: the IC50 came to 16.5 µM on human TOR (FLAG-TOR); 1.17 µM against PI3Kα; 7.5 µM in assay [1]; 27 µM in assay [2] (Homo sapiens, 72 h).

On to `O=c1cc(Oc2ccc(-c3ccccc3)cc2)c2ccccc2[nH]1`, for which the half-inhibitory concentration (IC50) at human TOR (FLAG-TOR) was over 20 µM; at PI3Kα, 0.938 µM; in assay [1], over 60 µM; in assay [2] (Homo sapiens, 72 h), over 60 µM.

On to `O=c1cc(Oc2cccc(-c3ccc(Cl)nc3)c2)c2ccccc2[nH]1`, for which the half-maximal inhibitory concentration (IC50) at human TOR (FLAG-TOR) is over 20 µM; on PI3Kα, over 10 µM; in assay [1], over 60 µM; in assay [2] (Homo sapiens, 72 h), over 60 µM.

In the case of `O=c1cc(Oc2ccc(-c3ccc(NCCN4CCOCC4)nc3)cc2)c2ccccc2[nH]1`, the 50% inhibitory concentration (IC50) at human TOR (FLAG-TOR) is 1.08 µM; against PI3Kα, over 10 µM; in assay [1], 1.05 µM; in assay [2] (Homo sapiens, 72 h), 8 µM.

As for `Cn1cc(CN(Cc2ccn(C)n2)c2cccc(Oc3cc(=O)[nH]c4ccccc34)c2)cn1`, the IC50 stood at 0.23 µM at human TOR (FLAG-TOR); 4.62 µM at PI3Kα; 3 µM in assay [1]; 3 µM in assay [2] (Homo sapiens, 72 h).

For the molecule `CN(C)CCNC(=O)c1cccc(-c2cccc(Oc3cc(=O)[nH]c4ccccc34)c2)c1`, the IC50 on human TOR (FLAG-TOR) is 0.32 µM; against PI3Kα, over 10 µM; in assay [1], 10 µM; in assay [2] (Homo sapiens, 72 h), 10 µM.

`O=c1cc(Oc2cccc(-c3ccc(NCc4cccnc4)cc3)c2)c2ccccc2[nH]1`: the IC50 on human TOR (FLAG-TOR) is 1.3 µM; at PI3Kα, 7 µM; in assay [1], over 60 µM; in assay [2] (Homo sapiens, 72 h), over 60 µM.

As for `O=c1cc(Oc2cccc(-c3cccnc3)c2)c2ccccc2[nH]1`, the IC50 on human TOR (FLAG-TOR) was 0.43 µM; against PI3Kα, 3.66 µM; in assay [1], 7 µM; in assay [2] (Homo sapiens, 72 h), 20 µM.

For the molecule `O=c1cc(Oc2cccc(-c3ccc(N4CCOCC4)cc3)c2)c2ccccc2[nH]1`, the IC50 was 0.49 µM at human TOR (FLAG-TOR); 10.4 µM on PI3Kα; 13 µM in assay [1]; 35 µM in assay [2] (Homo sapiens, 72 h).

`O=c1cc(Oc2cccc(NCc3cccnc3Cl)c2)c2ccccc2[nH]1` [drawing 207]: the IC50 is 0.13 µM on human TOR (FLAG-TOR), 11 µM against PI3Kα, 5.3 µM in assay [1] and over 60 µM in assay [2].

With `CN1CCN(c2ccc(Oc3cc(=O)[nH]c4ccccc34)cc2)CC1`, the IC50 at human TOR (FLAG-TOR) was 7 µM; at PI3Kα, over 10 µM; in assay [1] it was 17 µM; in assay [2] (Homo sapiens, 72 h) it was 40 µM.

`Cn1cc(-c2ccc3c(Oc4ccccc4)cc(=O)[nH]c3c2)cn1`: the IC50 on human TOR (FLAG-TOR) was over 20 µM; against PI3Kα it was 4.63 µM; in assay [1] it was over 60 µM; in assay [2] (Homo sapiens, 72 h), over 60 µM.

For `O=c1cc(Oc2ccc(-c3ccc(F)cc3)cc2)c2ccccc2[nH]1`, the IC50 at human TOR (FLAG-TOR) is 15.8 µM; against PI3Kα it was 9.66 µM; in assay [1], over 60 µM; in assay [2] (Homo sapiens, 72 h), over 60 µM.

For the molecule `COc1cccc(Oc2cc(=O)[nH]c3ccccc23)c1`, the half-inhibitory concentration (IC50) is 0.3 µM at human TOR (FLAG-TOR); over 10 µM against PI3Kα; 9.3 µM in assay [1]; 60 µM in assay [2] (Homo sapiens, 72 h).

In the case of `O=c1cc(Oc2ccc(OC(F)F)cc2)c2ccccc2[nH]1`, the IC50 is 1.04 µM on human TOR (FLAG-TOR); over 10 µM at PI3Kα; 5.5 µM in assay [1]; over 60 µM in assay [2] (Homo sapiens, 72 h).

By IC50 is commonly meant the point on the concentration scale where inhibition reaches its midpoint.
